Assay results taken from US20230081986A1, “METHOD AND REAGENTS TO IMPROVE NONANIMAL OCULAR TOXICITY TESTS” (Lebrun Labs LLC, priority 2021, published 2023).

Experiments:
rabbit cornea = experiment: Cornea exposure for different times, with and without the esterase inhibitor ebelactone; settings: for state of the cornea: 6-minute exposure
Method: FIG. 2 depicts the effects of ebelactone on rabbit cornea.
To test this hypothesis, we incubated corneas with 100 µL of the test chemical for different exposure times and observed that methyl cyanoacetate produced a toxic effect on the eye after 6 minutes of exposure. To confirm that this increased toxicity was metabolically related, eyes were treated with ebelactone, an inhibitor of nonspecific esterases. […] Based on these findings, we updated the IVD EIT method to include the following: Each chemical is first tested using a direct 1-minute application to the eye; if negative, the chemical is then retested for 6 minutes using the metabolic test (META). All of the steps of the META test are the same as the direct test except for the dosing step. For the META, 100 µL of tear solution (saline with ascorbic acid, protein) is first added to the dosing ring, followed by the addition of 100 µL of the material to be tested.

[1] = literature review [11]; cited from earlier work

COC(=O)CC#N [methyl cyanoacetate]
state of the cornea (rabbit cornea; in the presence of ebelactone): somewhat swollen but there are mostly viable cells | state of the cornea (rabbit cornea; without ebelactone): swollen with no viable cells | effect on the eye (rabbit cornea; 100 µL, after 6 minutes of exposure): toxic effect | classification by most nonanimal tests [1]: misclassified as FN
